Among the data in ChEMBL document CHEMBL4665853, “Inhibition of Macrophage Migration Inhibitory Factor by a Chimera of Two Allosteric Binders” (ACS Med Chem Lett, 2020) are IC50, Kd and Ki values, retold here.

The IC50 is the concentration needed to halve the response being measured. The Kd is a measure of binding affinity in units of concentration. As a reminder, the Ki is the equilibrium dissociation constant of an inhibitor or competing ligand from its target.

The target in assay [1] is T1, Macrophage migration inhibitory factor (Homo sapiens, UniProt P14174).
T1 sequence (P14174 whole entry): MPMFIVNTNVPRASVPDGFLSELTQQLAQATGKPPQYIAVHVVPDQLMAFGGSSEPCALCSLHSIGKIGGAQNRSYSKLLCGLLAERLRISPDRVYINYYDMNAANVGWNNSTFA
Put plainly: Inhibition of recombinant human MIF expressed in Escherichia coli BL21 DE3 binding to recombinant soluble human CD74 receptor ectodomain (73 to 232 residues) expressed in Escherichia coli BL21 (DE3) pLysS using p-nitrophenyl phosphate as substrate by ELISA.

Assay [2] addresses T1, Macrophage migration inhibitory factor. Put plainly: Binding affinity to recombinant biotinylated human MIF expressed in Escherichia coli BL21 DE3 by surface plasmon resonance assay.
Assay [3] shares this target. Description: Inhibition of MIF-induced IL-8 secretion in human foreskin fibroblasts incubated for 30 mins by ELISA.
Assay [4] shares this target. Description: Inhibition of recombinant biotinylated human MIF tautomerase activity expressed in Escherichia coli BL21 DE3 assessed as reduction in tautomerization of keto-p-hydroxyphenylpyruvate using keto-p-hydroxyphenylpyrivate as substrate preincubated for 30 mins followed by substrate addition by HTS assay.
The target is the same in assay [5]. Put plainly: Non-competitive inhibition of recombinant human MIF assessed as inhibition constant using varying levels of p-hydroxyphenylpyruvate as substrate by Lineweaver-Burk plot analysis.

SMILES strings stand for the structures.

As for `CC(C)C(=O)c1c(Cc2cccc(/N=N/c3ccc4c(S(=O)(=O)O)cc(S(=O)(=O)O)c(N)c4c3O)c2)nn2ccccc12`, the IC50 was found to be 0.93 µM in assay [1], 4.42 µM in assay [3] and 7.59 µM in assay [4]. In addition, the Kd in assay [2] is 6.86 µM.

As to `CC(C)C(=O)c1c(C(C)C)nn2ccccc12` [IBUDILAST], the Kd in assay [2] is 1.4 µM. In assay [5], the Ki came out at 30.9 µM.
